Laboratory results published in ChEMBL document CHEMBL1177720, “Selective hexapeptide agonists and antagonists for human complement C3a receptor” (J Med Chem, 2010).
Calls of active or inactive are those of the source. No cut-off for these calls is given here.

Key:
[1] = target: T1, C5a anaphylatoxin chemotactic receptor 1 (Homo sapiens) (UniProt P21730); test: Displacement of […] from C5a receptor in human PBMC at 1 mM by scintillation counting
T1 sequence (whole entry): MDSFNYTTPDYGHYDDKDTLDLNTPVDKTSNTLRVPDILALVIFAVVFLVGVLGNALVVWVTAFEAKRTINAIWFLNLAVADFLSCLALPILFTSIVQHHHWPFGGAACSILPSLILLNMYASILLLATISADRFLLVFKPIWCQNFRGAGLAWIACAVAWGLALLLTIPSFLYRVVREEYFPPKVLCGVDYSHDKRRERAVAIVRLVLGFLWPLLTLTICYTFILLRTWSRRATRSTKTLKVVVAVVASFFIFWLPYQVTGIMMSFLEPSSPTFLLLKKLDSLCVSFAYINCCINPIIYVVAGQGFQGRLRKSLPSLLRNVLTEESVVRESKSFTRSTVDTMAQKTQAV

[2] = target: T2, C3a anaphylatoxin chemotactic receptor (Homo sapiens) (UniProt Q16581); test: Agonist activity at human C3a receptor in human U937 cells assessed as induction of intracellular calcium release at 1 mM; type: functional, cell-based; conditions: U-937
T2 sequence (whole entry): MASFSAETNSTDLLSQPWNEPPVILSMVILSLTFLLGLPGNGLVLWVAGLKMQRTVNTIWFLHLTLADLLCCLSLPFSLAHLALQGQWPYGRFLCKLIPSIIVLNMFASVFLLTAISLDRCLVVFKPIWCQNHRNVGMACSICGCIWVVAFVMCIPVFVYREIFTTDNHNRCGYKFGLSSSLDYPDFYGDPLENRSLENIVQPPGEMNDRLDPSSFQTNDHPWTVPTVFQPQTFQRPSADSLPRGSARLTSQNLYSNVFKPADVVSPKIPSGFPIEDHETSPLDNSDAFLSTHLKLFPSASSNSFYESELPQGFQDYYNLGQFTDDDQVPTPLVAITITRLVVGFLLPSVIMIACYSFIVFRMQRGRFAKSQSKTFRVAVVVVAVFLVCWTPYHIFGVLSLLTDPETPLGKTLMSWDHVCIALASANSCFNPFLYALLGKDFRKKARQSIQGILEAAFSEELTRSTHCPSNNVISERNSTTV

[3] = species: Homo sapiens; test: Selectivity for human C3a receptor over human C5a receptor
[4] = target: T3, C3a anaphylatoxin chemotactic receptor (Homo sapiens, UniProt Q16581); test: Displacement of [125I-C3a] from C3a receptor in human PBMC by scintillation counting; conditions: read-out: IC50
T3 sequence (Q16581 whole entry): T2 sequence (whole entry)

[5] = target: T3, C3a anaphylatoxin chemotactic receptor; test: Antagonist activity at human C3a receptor in human U937 cells assessed as inhibition of intracellular calcium mobilization; type: functional, cell-based, U-937
[6] = target: T2, C3a anaphylatoxin chemotactic receptor (Homo sapiens); test: Agonist activity at human C3a receptor in human U937 cells assessed as induction of intracellular calcium release at 100 uM; type: functional, cell-based; conditions: U-937
[7] = target: T2, C3a anaphylatoxin chemotactic receptor (Homo sapiens); test: Agonist activity at human C3a receptor in human U937 cells assessed as induction of intracellular calcium release at 10 uM; type: functional, cell-based; conditions: U-937

Row | Selectivity ratio [3] | Structure (SMILES) | Activity [1] | Activity [2] | IC50 [4] [nM] | IC50 [5] [nM] | Activity [6] | Activity [7]
1 | > 100 | CC(C)C[C@H](NC(=O)[C@@H](N)Cc1ccccc1)C(=O)N[C@H](C(=O)N[C@@H](CC1CCCCC1)C(=O)N[C@@H](C)C(=O)N[C@@H](CCCNC(=N)N)C(=O)O)[C@@H](C)O | inactive | inactive | 238 | 240 | inactive | –
2 | – | N=C(N)NCCC[C@H](NC(=O)COCC(c1ccccc1)c1ccccc1)C(=O)O | inactive | inactive | 140 | 1300 | – | inactive
